Experimental findings from patent US9980943B2, “Methods of treating muscular dystrophy” (BOARD OF REGENTS OF THE NEVADA SYSTEM OF HIGHER EDUCATION, …, priority 2013, dated 2018) are described below.

Molecules are shown by their SMILES.

What all share (assay type): cell-based, mouse
Test [1] has as its system α7 integrin (LacZ reporter in α7βgal+/− myoblasts). The test is described as follows: Myoblast α7+/LacZ integrin FDG assay (Burkin assay in myoblasts, 96-well). As to conditions: α7+/LacZ myoblasts, 96-well.
For test [2], the system named is α7 integrin (LacZ reporter in α7+/LacZ myotubes). The experiment in a line: Myotube α7 integrin FDG assay (Burkin assay in myotubes, 96-well). The settings on record: myotubes.
Test [3] relates to β-galactosidase in CMV-LacZ C2C12 myotubes. The experiment in a line: CMV-LacZ secondary screen in C2C12 myotubes (β-Gal stabilizing assay). As to conditions: for CMV-LACZ in Myotubes (β-galactosidase activity relative to DMSO): CMV-LacZ C2C12 myotubes, 96-well format; for CMV-LACZ in Myotubes, signal relative to DMSO: C2C12 CMV-LacZ myotubes, fold relative to DMSO. Summed up:
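Stable CMV-LacZ C2C12 clone; six-point curve 0.5–40 μM; duplicates.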

As to `COc1cccc(N2C(=O)CC(N3CCc4ccccc4C3)C2=O)c1` (centres unmarked) [MLS000769322-01], the “Burkin Assay in Myoblasts, value relative to DMSO” value is 0.9535 in test [1] (0.5 uM); 0.9354 in test [1] (1 uM); 0.9653 in test [1] (5 uM); 1.0771 in test [1] (10 uM); 1.006 in test [1] (20 uM); 0.955 in test [1] (40 uM). Moreover, the “Burkin Assay in Myotubes (signal relative to DMSO)” value was 0.9609 in test [2] (0.5 uM); 1.055 in test [2] (1 uM); 1.1195 in test [2] (5 uM); 1.165 in test [2] (10 uM); 1.067 in test [2] (20 uM); 1.019 in test [2] (40 uM). The “CMV-LACZ in Myotubes (β-galactosidase activity relative to DMSO)” value in test [3] (5 uM) came out at 0.8609; in test [3] (10 uM), 1.02; in test [3] (20 uM), 1.118; in test [3] (40 uM) it was 1.091.
Regarding `Cc1ccc(C2=C(CC(=O)O)C(=O)CC2)cc1` [MLS000553673-01], the “Burkin Assay in Myoblasts, value relative to DMSO” value in test [1] (0.5 uM) worked out at 1.009; in test [1] (1 uM), 0.8952; in test [1] (5 uM), 1.038; in test [1] (10 uM), 1.0007; in test [1] (20 uM) it was 0.9043; in test [1] (40 uM) it was 0.8892. For the same compound, the “Burkin Assay in Myotubes (signal relative to DMSO)” value in test [2] (0.5 uM) came to 0.8749; in test [2] (1 uM) it was 0.8923; in test [2] (5 uM), 1.304; in test [2] (10 uM), 1.161; in test [2] (20 uM) it was 1.088; in test [2] (40 uM) it was 1.134. The “CMV-LACZ in Myotubes, signal relative to DMSO” value is given as 0.8021 in test [3] (5 uM), 0.9603 in test [3] (10 uM), 1.005 in test [3] (20 uM) and 0.9127 in test [3] (40 uM).
On to `O=S(=O)(NCC(c1ccco1)N1CCOCC1)c1ccc(Cl)cc1` (centres unmarked) [MLS000724709-01], for which the “Burkin Assay in Myoblasts, value relative to DMSO” value in test [1] (0.5 uM) was determined as 0.9899; in test [1] (1 uM), 0.9554; in test [1] (5 uM), 0.7389; in test [1] (10 uM), 0.779; in test [1] (20 uM) it was 0.486; in test [1] (40 uM), 0.5536. In addition, the “Burkin Assay in Myotubes (signal relative to DMSO)” value in test [2] (0.5 uM) was 0.9961; in test [2] (1 uM) it was 1.467; in test [2] (5 uM) it was 1.04; in test [2] (10 uM), 1.002; in test [2] (20 uM), 0.885; in test [2] (40 uM), 0.9768. For the same compound, the “CMV-LACZ in Myotubes (β-galactosidase activity relative to DMSO)” value in test [3] (5 uM) came to 0.8422; in test [3] (10 uM), 0.8828; in test [3] (20 uM) it was 1.054; in test [3] (40 uM), 1.125.
Turning to `CCOc1ccc(NC(=O)CN2C(=O)S/C(=C/c3cccn3C)C2=O)cc1` [MLS000702680-01], the “Burkin Assay in Myoblasts, signal relative to DMSO” value in test [1] (0.5 uM) was determined as 0.845; in test [1] (1 uM) it was 0.8804; in test [1] (5 uM) it was 0.8623; in test [1] (10 uM) it was 0.8908; in test [1] (20 uM), 0.6925; in test [1] (40 uM) it was 0.6264. Besides, the “Burkin Assay in Myotubes, α7 integrin LacZ reporter signal relative to DMSO” value in test [2] (0.5 uM) was determined as 1.016; in test [2] (1 uM), 0.9196; in test [2] (5 uM) it was 0.9678; in test [2] (10 uM), 0.7773; in test [2] (20 uM), 0.8074; in test [2] (40 uM), 0.7464. Further, the “CMV-LACZ in Myotubes, signal relative to DMSO” value was determined as 1.008 in test [3] (5 uM), 1.107 in test [3] (10 uM), 1.233 in test [3] (20 uM) and 1.181 in test [3] (40 uM).
On to `O=c1[nH]c(C2CCCN(S(=O)(=O)c3ccccc3)C2)nc2c1nnn2Cc1cccc(Cl)c1` (centres unmarked) [MLS001217286-01], for which the “Burkin Assay in Myoblasts, value relative to DMSO” value in test [1] (0.5 uM) stood at 0.7428; in test [1] (1 uM), 0.8506; in test [1] (5 uM), 0.7671; in test [1] (10 uM), 0.8273; in test [1] (20 uM), 1.006; in test [1] (40 uM), 1.068. The “Burkin Assay in Myotubes (signal relative to DMSO)” value in test [2] (0.5 uM) was 0.7617; in test [2] (1 uM), 0.9911; in test [2] (5 uM), 1.193; in test [2] (10 uM), 1.219; in test [2] (20 uM), 1.095; in test [2] (40 uM), 0.5964. For the same compound, the “CMV-LACZ in Myotubes (β-galactosidase activity relative to DMSO)” value in test [3] (5 uM) amounted to 0.9599; in test [3] (10 uM), 1.227; in test [3] (20 uM), 0.3991; in test [3] (40 uM), 0.3604.
Take `COc1ccc(NC(=O)c2cccc(N3C(=O)c4ccc(C(=O)Nc5ccc(OC)c(O)c5)cc4C3=O)c2)cc1O` [MLS001124732-01]: the “Burkin Assay in Myoblasts, signal relative to DMSO” value is 1.121 in test [1] (0.5 uM); 1.071 in test [1] (1 uM); 0.8622 in test [1] (5 uM); 0.8125 in test [1] (10 uM); 0.6893 in test [1] (20 uM); 0.6581 in test [1] (40 uM). Further, the “Burkin Assay in Myotubes, α7 integrin LacZ reporter signal relative to DMSO” value in test [2] (0.5 uM) is 1.0065; in test [2] (1 uM), 1.029; in test [2] (5 uM) it was 0.8759; in test [2] (10 uM), 0.8964; in test [2] (20 uM), 0.8719; in test [2] (40 uM), 0.7888. For the same compound, the “CMV-LACZ in Myotubes, signal relative to DMSO” value in test [3] (5 uM) came out at 1.025; in test [3] (10 uM), 1.016; in test [3] (20 uM), 1.07; in test [3] (40 uM) it was 0.972.
For `CCCS(=O)(=O)N1CCCC(C(=O)c2cccc(Cl)c2)C1` (centres unmarked) [MLS000862690-01], the “Burkin Assay in Myoblasts, value relative to DMSO” value in test [1] (0.5 uM) is listed as 1.029; in test [1] (1 uM), 1.027; in test [1] (5 uM) it was 1.009; in test [1] (10 uM) it was 1.004; in test [1] (20 uM), 0.8717; in test [1] (40 uM), 0.9753. Also, the “Burkin Assay in Myotubes (signal relative to DMSO)” value is reported as 1.125 in test [2] (0.5 uM); 0.9576 in test [2] (1 uM); 0.5941 in test [2] (5 uM); 0.9481 in test [2] (10 uM); 1.0131 in test [2] (20 uM); 1.0763 in test [2] (40 uM). The “CMV-LACZ in Myotubes, signal relative to DMSO” value is 0.8684 in test [3] (5 uM), 0.8943 in test [3] (10 uM), 0.9323 in test [3] (20 uM) and 1.018 in test [3] (40 uM).
Consider `Cc1ccc(C2Nc3cccc4cccc(c34)N2)s1` [MLS000591198-01], for which the “Burkin Assay in Myoblasts, value relative to DMSO” value in test [1] (0.5 uM) is 1.006; in test [1] (1 uM), 0.9251; in test [1] (5 uM), 1.037; in test [1] (10 uM) it was 0.9593; in test [1] (20 uM), 0.7765; in test [1] (40 uM) it was 0.473. In addition, the “Burkin Assay in Myotubes (signal relative to DMSO)” value is recorded as 1.017 in test [2] (0.5 uM); 0.881 in test [2] (1 uM); 1 in test [2] (5 uM); 0.8548 in test [2] (10 uM); 0.9852 in test [2] (20 uM); 0.7014 in test [2] (40 uM). In addition, the “CMV-LACZ in Myotubes (β-galactosidase activity relative to DMSO)” value stood at 0.9681 in test [3] (5 uM), 0.9319 in test [3] (10 uM), 0.8338 in test [3] (20 uM) and 0.4531 in test [3] (40 uM).
